Source: ChEMBL document CHEMBL4507268 (2021)

What was measured:
Conditions in all cases: Compound concentration 1.0 uM
[1] = target: T1, Bone morphogenetic protein receptor type-2 (Homo sapiens) (UniProt Q13873)
T1 sequence (whole entry): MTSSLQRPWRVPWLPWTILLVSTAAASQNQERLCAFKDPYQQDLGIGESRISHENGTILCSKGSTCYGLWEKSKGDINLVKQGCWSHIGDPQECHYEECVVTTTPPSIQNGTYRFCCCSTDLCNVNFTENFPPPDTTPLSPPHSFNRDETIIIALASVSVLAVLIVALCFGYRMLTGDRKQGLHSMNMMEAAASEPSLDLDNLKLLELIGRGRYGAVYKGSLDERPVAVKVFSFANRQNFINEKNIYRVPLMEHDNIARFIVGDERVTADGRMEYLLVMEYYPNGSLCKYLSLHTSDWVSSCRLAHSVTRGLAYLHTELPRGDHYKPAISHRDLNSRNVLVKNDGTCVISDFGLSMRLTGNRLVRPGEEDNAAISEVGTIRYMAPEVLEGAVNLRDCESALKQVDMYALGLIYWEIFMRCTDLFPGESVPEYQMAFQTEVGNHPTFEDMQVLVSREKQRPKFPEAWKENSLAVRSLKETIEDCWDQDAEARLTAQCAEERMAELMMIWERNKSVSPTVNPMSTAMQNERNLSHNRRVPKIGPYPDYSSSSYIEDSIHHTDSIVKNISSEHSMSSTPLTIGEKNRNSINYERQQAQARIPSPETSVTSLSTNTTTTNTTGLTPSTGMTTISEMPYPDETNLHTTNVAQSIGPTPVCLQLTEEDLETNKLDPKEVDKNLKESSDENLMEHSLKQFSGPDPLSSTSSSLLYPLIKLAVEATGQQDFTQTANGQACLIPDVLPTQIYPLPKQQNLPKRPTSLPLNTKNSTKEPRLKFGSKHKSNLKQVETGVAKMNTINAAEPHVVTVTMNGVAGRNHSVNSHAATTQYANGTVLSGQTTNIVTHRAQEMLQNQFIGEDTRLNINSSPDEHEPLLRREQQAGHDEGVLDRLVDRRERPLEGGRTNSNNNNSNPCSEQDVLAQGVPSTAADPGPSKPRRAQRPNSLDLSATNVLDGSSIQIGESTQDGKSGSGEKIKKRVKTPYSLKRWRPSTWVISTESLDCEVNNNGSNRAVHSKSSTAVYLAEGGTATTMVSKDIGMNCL

[2] = target: Mitogen-activated protein kinase 10 (Homo sapiens) (UniProt P53779)
[3] = target: Leucine-rich repeat serine/threonine-protein kinase 2 (Homo sapiens) (UniProt Q5S007)
Chain of Leucine-rich repeat serine/threonine-protein kinase 2 (Homo sapiens) (Q5S007 whole entry): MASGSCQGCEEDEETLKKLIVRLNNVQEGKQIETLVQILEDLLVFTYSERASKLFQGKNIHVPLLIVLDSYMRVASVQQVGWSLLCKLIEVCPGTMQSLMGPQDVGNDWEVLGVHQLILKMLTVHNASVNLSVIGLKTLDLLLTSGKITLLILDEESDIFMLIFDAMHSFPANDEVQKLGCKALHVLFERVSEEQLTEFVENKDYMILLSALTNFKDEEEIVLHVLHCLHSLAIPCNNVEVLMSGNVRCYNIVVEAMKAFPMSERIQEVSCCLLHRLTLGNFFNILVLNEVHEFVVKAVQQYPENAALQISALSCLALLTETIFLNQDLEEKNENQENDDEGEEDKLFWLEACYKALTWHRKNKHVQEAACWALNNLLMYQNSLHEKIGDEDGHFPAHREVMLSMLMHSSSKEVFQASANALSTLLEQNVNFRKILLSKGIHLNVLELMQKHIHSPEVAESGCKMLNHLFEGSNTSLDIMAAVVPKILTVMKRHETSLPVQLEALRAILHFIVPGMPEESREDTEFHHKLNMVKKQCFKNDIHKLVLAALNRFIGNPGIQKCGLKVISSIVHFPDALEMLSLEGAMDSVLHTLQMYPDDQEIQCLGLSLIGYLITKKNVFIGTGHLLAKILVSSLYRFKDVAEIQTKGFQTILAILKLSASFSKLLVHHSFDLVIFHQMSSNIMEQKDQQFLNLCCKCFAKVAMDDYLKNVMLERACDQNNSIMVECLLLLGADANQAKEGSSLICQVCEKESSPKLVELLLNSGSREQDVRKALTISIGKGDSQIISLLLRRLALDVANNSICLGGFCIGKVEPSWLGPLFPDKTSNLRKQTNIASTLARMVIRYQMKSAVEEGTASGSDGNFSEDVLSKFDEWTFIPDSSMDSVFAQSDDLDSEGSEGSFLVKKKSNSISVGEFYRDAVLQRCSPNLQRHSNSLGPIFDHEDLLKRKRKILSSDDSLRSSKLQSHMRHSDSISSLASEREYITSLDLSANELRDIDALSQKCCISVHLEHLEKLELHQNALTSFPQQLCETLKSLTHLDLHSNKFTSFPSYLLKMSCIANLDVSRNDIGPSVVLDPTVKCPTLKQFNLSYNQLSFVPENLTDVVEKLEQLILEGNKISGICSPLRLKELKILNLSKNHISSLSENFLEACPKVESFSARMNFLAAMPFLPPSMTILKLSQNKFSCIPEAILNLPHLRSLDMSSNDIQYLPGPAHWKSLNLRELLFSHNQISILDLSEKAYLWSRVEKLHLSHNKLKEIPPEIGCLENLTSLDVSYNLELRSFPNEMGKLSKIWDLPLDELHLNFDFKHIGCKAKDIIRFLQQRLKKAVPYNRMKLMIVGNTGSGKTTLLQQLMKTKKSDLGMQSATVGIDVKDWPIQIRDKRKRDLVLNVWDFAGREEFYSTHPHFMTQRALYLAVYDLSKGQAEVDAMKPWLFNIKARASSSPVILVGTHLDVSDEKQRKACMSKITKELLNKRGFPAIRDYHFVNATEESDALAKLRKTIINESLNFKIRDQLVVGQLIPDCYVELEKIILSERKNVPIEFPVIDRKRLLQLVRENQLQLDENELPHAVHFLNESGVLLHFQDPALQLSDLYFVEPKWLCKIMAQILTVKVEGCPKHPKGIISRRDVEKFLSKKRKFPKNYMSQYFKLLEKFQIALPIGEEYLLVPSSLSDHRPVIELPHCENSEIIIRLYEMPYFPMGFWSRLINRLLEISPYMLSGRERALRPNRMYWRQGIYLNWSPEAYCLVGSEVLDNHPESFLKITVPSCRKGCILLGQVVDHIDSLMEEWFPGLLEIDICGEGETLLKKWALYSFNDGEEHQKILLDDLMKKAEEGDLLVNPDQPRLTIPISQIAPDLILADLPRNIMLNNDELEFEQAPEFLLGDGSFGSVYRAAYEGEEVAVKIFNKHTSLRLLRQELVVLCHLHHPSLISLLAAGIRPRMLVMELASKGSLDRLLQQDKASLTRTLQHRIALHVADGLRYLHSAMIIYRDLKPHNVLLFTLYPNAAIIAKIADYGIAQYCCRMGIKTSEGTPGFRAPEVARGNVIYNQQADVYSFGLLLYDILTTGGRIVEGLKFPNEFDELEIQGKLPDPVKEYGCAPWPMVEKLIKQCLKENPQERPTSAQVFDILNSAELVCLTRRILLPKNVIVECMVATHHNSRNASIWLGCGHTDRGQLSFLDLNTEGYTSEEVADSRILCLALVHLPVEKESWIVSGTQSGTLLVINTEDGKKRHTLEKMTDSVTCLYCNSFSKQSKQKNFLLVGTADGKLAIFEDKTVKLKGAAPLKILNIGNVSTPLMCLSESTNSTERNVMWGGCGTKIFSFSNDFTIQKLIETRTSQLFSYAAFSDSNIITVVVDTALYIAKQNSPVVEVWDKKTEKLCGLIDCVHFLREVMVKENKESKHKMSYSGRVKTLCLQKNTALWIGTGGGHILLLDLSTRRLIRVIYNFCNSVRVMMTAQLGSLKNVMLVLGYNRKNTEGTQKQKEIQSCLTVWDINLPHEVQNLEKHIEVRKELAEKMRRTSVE

[4] = target: T2, MAP/microtubule affinity-regulating kinase 4 (Homo sapiens) (UniProt Q96L34)
T2 sequence (whole entry): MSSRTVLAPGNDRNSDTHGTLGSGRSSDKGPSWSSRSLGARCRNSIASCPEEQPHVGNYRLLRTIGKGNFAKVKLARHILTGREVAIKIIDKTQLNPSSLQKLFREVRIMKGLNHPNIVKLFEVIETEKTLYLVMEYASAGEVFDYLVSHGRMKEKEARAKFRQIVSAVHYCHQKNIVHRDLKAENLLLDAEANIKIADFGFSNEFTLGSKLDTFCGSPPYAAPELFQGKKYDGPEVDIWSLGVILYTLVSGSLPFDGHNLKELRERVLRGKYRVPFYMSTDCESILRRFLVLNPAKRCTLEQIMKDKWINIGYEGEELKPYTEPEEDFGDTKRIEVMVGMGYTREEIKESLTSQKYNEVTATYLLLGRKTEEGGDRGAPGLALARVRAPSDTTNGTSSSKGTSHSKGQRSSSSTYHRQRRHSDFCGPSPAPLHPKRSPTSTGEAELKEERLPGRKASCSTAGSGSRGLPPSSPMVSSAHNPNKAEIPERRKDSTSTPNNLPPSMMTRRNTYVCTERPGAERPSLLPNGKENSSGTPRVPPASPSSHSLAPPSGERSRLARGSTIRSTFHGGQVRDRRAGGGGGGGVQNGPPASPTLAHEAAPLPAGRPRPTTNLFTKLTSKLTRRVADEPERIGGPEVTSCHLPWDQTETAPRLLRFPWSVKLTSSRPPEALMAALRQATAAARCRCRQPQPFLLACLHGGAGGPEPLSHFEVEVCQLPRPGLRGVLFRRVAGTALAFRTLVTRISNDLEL

[5] = target: Protein kinase C zeta type (Homo sapiens) (UniProt Q05513)
[6] = target: Angiopoietin-1 receptor (Homo sapiens) (UniProt Q02763)
Chain of Angiopoietin-1 receptor (Homo sapiens) (Q02763 whole entry, canonical isoform): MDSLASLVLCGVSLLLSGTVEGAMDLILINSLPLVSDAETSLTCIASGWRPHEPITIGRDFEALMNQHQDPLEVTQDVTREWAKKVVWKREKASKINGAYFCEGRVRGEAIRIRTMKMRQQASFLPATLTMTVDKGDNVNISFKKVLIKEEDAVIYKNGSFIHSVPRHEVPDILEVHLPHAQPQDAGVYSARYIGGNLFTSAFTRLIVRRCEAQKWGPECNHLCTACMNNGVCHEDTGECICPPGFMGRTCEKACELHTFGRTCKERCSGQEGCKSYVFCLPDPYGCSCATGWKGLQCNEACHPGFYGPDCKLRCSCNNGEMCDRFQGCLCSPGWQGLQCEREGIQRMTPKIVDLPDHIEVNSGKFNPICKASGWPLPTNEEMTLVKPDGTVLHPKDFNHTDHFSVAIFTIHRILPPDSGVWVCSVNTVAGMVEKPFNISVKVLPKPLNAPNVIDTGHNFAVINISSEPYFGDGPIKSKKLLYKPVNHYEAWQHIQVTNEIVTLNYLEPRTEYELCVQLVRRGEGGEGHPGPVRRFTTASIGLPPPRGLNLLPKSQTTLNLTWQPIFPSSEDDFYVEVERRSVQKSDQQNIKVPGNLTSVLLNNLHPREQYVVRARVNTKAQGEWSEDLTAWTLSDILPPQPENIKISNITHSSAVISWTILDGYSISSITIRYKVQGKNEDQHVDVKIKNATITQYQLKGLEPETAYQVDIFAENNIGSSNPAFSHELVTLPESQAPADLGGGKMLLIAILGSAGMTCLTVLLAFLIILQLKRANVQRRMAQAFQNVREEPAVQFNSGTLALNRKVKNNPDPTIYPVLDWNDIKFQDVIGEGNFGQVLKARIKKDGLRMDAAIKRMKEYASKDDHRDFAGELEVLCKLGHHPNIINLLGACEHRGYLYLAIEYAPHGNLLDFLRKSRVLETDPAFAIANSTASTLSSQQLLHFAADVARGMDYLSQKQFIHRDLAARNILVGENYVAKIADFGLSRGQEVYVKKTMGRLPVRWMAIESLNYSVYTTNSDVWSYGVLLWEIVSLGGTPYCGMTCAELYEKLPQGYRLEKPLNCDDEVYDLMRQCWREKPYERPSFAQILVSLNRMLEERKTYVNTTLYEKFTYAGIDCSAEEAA

[7] = target: Phosphatidylinositol 4,5-bisphosphate 3-kinase catalytic subunit gamma isoform (Homo sapiens) (UniProt P48736)
Chain of Phosphatidylinositol 4,5-bisphosphate 3-kinase catalytic subunit gamma isoform (Homo sapiens) (P48736 whole entry, looked up, canonical isoform): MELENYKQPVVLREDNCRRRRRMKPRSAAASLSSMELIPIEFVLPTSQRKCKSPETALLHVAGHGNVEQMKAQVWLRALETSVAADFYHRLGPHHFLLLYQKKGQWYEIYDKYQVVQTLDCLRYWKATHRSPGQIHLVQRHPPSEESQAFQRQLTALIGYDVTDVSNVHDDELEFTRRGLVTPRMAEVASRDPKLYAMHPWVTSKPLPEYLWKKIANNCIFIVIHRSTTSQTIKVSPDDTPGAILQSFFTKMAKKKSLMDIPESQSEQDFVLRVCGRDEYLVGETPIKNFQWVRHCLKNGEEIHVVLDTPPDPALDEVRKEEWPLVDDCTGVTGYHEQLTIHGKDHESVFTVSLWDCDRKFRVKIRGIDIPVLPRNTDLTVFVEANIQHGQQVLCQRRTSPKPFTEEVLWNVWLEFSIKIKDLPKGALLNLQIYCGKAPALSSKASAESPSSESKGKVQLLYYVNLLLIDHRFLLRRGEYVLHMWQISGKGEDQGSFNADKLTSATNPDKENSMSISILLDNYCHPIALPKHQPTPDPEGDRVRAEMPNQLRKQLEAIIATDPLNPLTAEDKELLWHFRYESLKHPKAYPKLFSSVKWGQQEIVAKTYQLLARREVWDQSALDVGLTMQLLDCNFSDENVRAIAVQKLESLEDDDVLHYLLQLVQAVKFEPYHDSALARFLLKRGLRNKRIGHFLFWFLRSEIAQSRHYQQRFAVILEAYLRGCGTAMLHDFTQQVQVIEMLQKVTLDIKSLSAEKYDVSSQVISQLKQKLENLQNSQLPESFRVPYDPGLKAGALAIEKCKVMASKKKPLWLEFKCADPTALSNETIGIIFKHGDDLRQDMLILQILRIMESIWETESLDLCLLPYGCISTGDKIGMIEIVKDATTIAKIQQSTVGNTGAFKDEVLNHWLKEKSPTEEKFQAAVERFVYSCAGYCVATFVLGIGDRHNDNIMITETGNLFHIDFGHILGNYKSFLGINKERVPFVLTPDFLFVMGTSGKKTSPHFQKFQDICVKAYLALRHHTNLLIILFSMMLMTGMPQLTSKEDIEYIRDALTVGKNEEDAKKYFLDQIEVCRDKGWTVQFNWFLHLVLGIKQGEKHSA

Measured: % residual kinase activity

CN1CCN(c2cnc3c(C4CCN(C(=O)c5ccc(OC(F)(F)F)cc5N)CC4)ncnc3c2)CC1 [BAY-885]
inactive: [1] 100% | [2] 111% | [3] 102% | [4] 100% | [5] 114% | [6] 84% | [7] 100%
